Measurements from patent US8362000B2, “Azetidinyl diamides as monoacylglycerol lipase inhibitors” (Janssen Pharmaceutica NV, priority 2009, dated 2013).
Read-outs that look alike come from different tables or passages of the source.

Tests used:
MGL = biological target: T1, MGL (Rattus norvegicus, UniProt Q8R431); assay: 2-AG accumulation assay in rat brain homogenate; assay type: biochemical; settings: rat brain homogenate, 2-AG accumulation as percent of vehicle; for 2-AG accumulation, % of vehicle control at 1 µM: compound 1 μM, read-out: Rat Brain 2AG % VehCntrl (%) @ 1 μM; for 2-AG accumulation, % of vehicle control at 10 µM: compound 10 μM, read-out: Rat Brain 2AG % VehCntrl (%) @ 10 μM
T1 construct: one g rat brain was homogenized using a Polytron homogenizer; from tissue; host or cells: rat brain homogenate
T1 sequence (Q8R431 1-303): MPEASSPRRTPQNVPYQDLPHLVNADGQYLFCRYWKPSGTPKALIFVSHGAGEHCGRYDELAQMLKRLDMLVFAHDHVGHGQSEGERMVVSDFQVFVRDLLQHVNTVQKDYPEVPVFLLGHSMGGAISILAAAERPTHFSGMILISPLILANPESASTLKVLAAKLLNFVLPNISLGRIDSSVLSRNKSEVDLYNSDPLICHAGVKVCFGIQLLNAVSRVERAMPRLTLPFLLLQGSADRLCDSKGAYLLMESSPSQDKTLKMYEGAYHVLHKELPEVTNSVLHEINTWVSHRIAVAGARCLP

mutant MGL = biological target: T2, mutant MGL (Homo sapiens, UniProt Q99685, L169S/L176S); assay: MGL ThermoFluor assay - mutant; assay type: binding
T2 sequence (Q99685 1-303 L169S/L176S): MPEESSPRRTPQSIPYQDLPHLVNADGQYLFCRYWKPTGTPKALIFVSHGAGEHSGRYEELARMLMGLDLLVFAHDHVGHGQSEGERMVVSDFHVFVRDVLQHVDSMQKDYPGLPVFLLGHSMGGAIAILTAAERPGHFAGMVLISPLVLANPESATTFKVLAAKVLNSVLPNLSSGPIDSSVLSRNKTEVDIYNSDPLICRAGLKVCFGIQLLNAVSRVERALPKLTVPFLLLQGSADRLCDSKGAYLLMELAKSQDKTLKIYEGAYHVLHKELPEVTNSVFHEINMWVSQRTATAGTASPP

[1] = ThermoFluor concentration-response, read-out: MGL mutant ThermoFluor Kd
[2] = ThermoFluor thermal stability binding assay, read-out: MGL mutant ThermoFluor Kd

Row | Compound | 2-AG accumulation, % of vehicle control at 1 µM (MGL) | Kd (mutant MGL; [1]) | Kd (mutant MGL; [2]) | further results
1 | O=C(c1cscn1)N1CC(N2CCN(C(=O)c3cc4cc(C(F)(F)F)ccc4s3)C(c3ccccc3)C2)C1 (stereo not drawn) [Cpd 905, 2-Phenyl-4-[1-(1,3-thiazol-4-ylcarbonyl)azetidin-3-yl]-1-{[5-(trifluoromethyl)-1-benzothiophen-2-yl]carbonyl}piperazine] | 119% | 0.044 µM |  | 
2 | O=C(c1ccccc1)N1CCN(C2CN(C(=O)c3ccc(OCc4ccc(Cl)c(Cl)c4)cc3)C2)CC1 [Cpd 379, 1-[1-({4-[(3,4-dichlorobenzyl)oxy]phenyl}carbonyl)azetidin-3-yl]-4-(phenylcarbonyl)piperazine] |  |  | 0.04 µM | 2-AG accumulation, % of vehicle control at 10 µM (MGL): 760%
3 | CN(c1ccccc1)c1ccc(C(=O)N2CC(N3CCN(C(=O)c4ccccc4)CC3)C2)cc1 [Cpd 40, N-Methyl-N-phenyl-4-({3-[4-(phenylcarbonyl)piperazin-1-yl]azetidin-1-yl}carbonyl)aniline] |  | 0.0242 µM |  | 2-AG accumulation, % of vehicle control at 10 µM (MGL): 490%
4 | CC(C)(C)OC(=O)N1CCC(c2ccc(C(=O)N3CC(N4CCN(C(=O)c5cscn5)CC4)C3)cc2)CC1 [Cpd 903] | 908% |  | 0.078 µM | 
5 | O=C(c1ccccc1)N1CCN(C2CN(C(=O)c3sc4cc(-c5ccccc5)ccc4c3Cl)C2)CC1 [Cpd 344] | 238% |  | 0.01 µM | 
6 | O=C(c1nccs1)N1CCN(C2CN(C(=O)c3cc(-c4ccccc4)oc3C(F)(F)F)C2)CC1 [Cpd 1379] | 282% |  | 0.042 µM | 
7 | O=C(c1ccccc1)N1CCN(C2CN(C(=O)c3ccc(SCc4cccc(Cl)c4Cl)cc3)C2)CC1 [Cpd 411, 1-[1-({4-[(2,3-Dichlorobenzyl)sulfanyl]phenyl}carbonyl)azetidin-3-yl]-4-(phenylcarbonyl)piperazine] |  | 0.0333 µM |  | 2-AG accumulation, % of vehicle control at 10 µM (MGL): 741%
8 | O=C(c1ccc(OCc2cccc(Cl)c2)cc1)N1CC(N2CCN(C(=O)c3cscn3)CC2)C1 [Cpd 960] | 896% |  | 0.036 µM | 
9 | O=C(c1nccs1)N1CCN(C2CN(C(=O)c3ccc(-c4ccccc4)cc3F)C2)CC1 [Cpd 1405, 1-{1-[(3-Fluorobiphenyl-4-yl)carbonyl]azetidin-3-yl}-4-(1,3-thiazol-2-ylcarbonyl)piperazine] | 197% | 0.002 µM |  | 
10 | Cc1cc(-c2ccc(F)c(Cl)c2)ccc1C(=O)N1CC(N2CCN(C(=O)c3ccccc3)CC2)C1 [Cpd 255, 1-{1-[(3′-Chloro-4′-fluoro-3-methylbiphenyl-4-yl)carbonyl]azetidin-3-yl}-4-(phenylcarbonyl)piperazine] | 115% |  | 0.027 µM | 
11 | O=C(c1ccc(Oc2ccccn2)c(F)c1)N1CC(N2CCN(C(=O)c3nccs3)CC2)C1 [Cpd 909] | 144% | 0.325 µM |  | 
12 | O=C(c1cc2ccc(C(F)(F)F)cc2s1)N1CC(N2CCN(C(=O)c3nccs3)CC2)C1 [Cpd 323, 1-(1,3-Thiazol-2-ylcarbonyl)-4-(1-{[6-(trifluoromethyl)-1-benzothiophen-2-yl]carbonyl}azetidin-3-yl)piperazine] |  |  | 0.0013 µM | 2-AG accumulation, % of vehicle control at 10 µM (MGL): 494%
13 | O=C(c1ccc(Cc2ccccc2)cc1)N1CCN(C2CN(C(=O)c3ccccc3)C2)CC1 [Cpd 61, 1-[(4-Benzylphenyl)carbonyl]-4-[1-(phenylcarbonyl)azetidin-3-yl]piperazine] |  | 0.029 µM |  | 2-AG accumulation, % of vehicle control at 10 µM (MGL): 604%
14 | O=C(c1ccc(-c2ccccc2)cc1)N1CC(N2CCN(C(=O)c3ccco3)CC2)C1 [Cpd 6, 1-[1-(Biphenyl-4-ylcarbonyl)azetidin-3-yl]-4-(furan-2-ylcarbonyl)piperazine] | 554% | 0.0036 µM |  | 2-AG accumulation, % of vehicle control at 0.01 µM (MGL; compound 0.01 μM, read-out: Rat Brain 2AG % VehCntrl (%) @ 0.01 μM): 75%; 2-AG accumulation, % of vehicle control at 0.1 µM (MGL; compound 0.1 μM, read-out: Rat Brain 2AG % VehCntrl (%) @ 0.1 μM): 238%; 2-AG accumulation, % of vehicle control at 10 µM (MGL): 623%
15 | O=C(c1ccc2oc(-c3ccccc3)nc2c1)N1CC(N2CCN(C(=O)c3cscn3)CC2)C1 [Cpd 1382, 2-Phenyl-5-({3-[4-(1,3-thiazol-4-ylcarbonyl)piperazin-1-yl]azetidin-1-yl}carbonyl)-1,3-benzoxazole] |  | 0.197 µM |  | 2-AG accumulation, % of vehicle control at 10 µM (MGL): 293%
16 | O=C(c1ccc(OCc2ccncc2)c(Cl)c1)N1CC(N2CCN(C(=O)c3nccs3)CC2)C1 [Cpd 398, 1-(1-{[3-Chloro-4-(pyridin-4-ylmethoxy)phenyl]carbon-yl}azetidin-3-yl)-4-(1,3-thiazol-2-ylcarbonyl)piperazine] | 392% |  | 0.0869 µM | 
17 | O=C(c1ccc(-c2ccccc2)cc1)N1CC(N2CCN(C(=O)c3ccc(Cl)o3)CC2)C1 [Cpd 312, 1-[1-(Biphenyl-4-ylcarbonyl)azetidin-3-yl]-4-[(5-chlorofuran-2-yl)carbonyl]piperazine] | 198% |  | 0.025 µM | 

Row | Compound | 2-AG accumulation, % of vehicle control at 1 µM (MGL) | Kd (mutant MGL; [1]) | Kd (mutant MGL; [2]) | further results
18 | O=C(c1ccc(CSc2cccc(Cl)c2)cc1)N1CC(N2CCN(C(=O)c3cscn3)CC2)C1 [Cpd 956] | 514% | 0.081 µM |  | 
19 | O=C(c1ccc2c(c1)CCCN2S(=O)(=O)c1cccc(C(F)(F)F)c1)N1CC(N2CCN(C(=O)c3nccs3)CC2)C1 [Cpd 367, 6-({3-[4-(1,3-Thiazol-2-ylcarbonyl)piperazin-1-yl]azetidin-1-yl}carbonyl)-1-{[3-(trifluoromethyl)phenyl]sulfonyl}-1,2,3,4-tetrahydroquinoline] | 701% |  | 0.0853 µM | 
20 | O=C(c1nccs1)N1CCN(C2CN(C(=O)[C@@H]3C[C@H]3c3ccccc3Cl)C2)CC1 (racemic) [Cpd 642] | 170% | 0.499 µM |  | 
21 | O=C(c1ccc(-c2ccccc2)c(F)c1)N1CC(N2CCN(C(=O)c3cscn3)CC2)C1 [Cpd 170, 1-{1-[(2-Fluorobiphenyl-4-yl)carbonyl]azetidin-3-yl}-4-(1,3-thiazol-4-ylcarbonyl)piperazine] | 205% | 0.0606 µM |  | 
22 | O=C(c1ccc(-c2cc(Cl)cc(Cl)c2)cc1)N1CC(N2CCN(C(=O)c3nccs3)CC2)C1 [Cpd 164, 1-{1-[(3′,5′-Dichlorobiphenyl-4-yl)carbonyl]azetidin-3-yl}-4-(1,3-thiazol-2-ylcarbonyl)piperazine] |  | 0.00111 µM |  | 2-AG accumulation, % of vehicle control at 10 µM (MGL): 969%
23 | O=C(c1ccccc1)N1CCN(C2CN(C(=O)c3ccc(-c4ccccc4)cc3Cl)C2)CC1 [Cpd 612] | 106% | 0.078 µM |  | 
24 | N#Cc1cccc(-n2ccc3cc(C(=O)N4CC(N5CCN(C(=O)c6nccs6)CC5)C4)ccc32)c1 [Cpd 1113] | 819% |  |  | Kd (mutant MGL; ThermoFluor, compound concentration measured by qNMR, read-out: MGL mutant ThermoFluor qKd (μM) (using qNMR conc.)): 0.01 µM
25 | O=C(c1ccc(Sc2cccc(Cl)c2)cc1)N1CC(N2CCN(C(=O)c3cscn3)CC2)C1 [Cpd 429] | 318% | 0.0331 µM |  | 
26 | O=C(c1ccc(C2CCCCC2)cc1)N1CC(N2CCN(C(=O)c3ccco3)CC2)C1 [Cpd 2, 1-{1-[(4-Cyclohexylphenyl)carbonyl]azetidin-3-yl}-4-(furan-2-ylcarbonyl)piperazine] |  | 0.00049 µM |  | 2-AG accumulation, % of vehicle control at 10 µM (MGL): 911%
27 | O=C(c1ccc(OCc2cccc(Br)n2)cc1)N1CC(N2CCN(C(=O)c3nccs3)CC2)C1 [Cpd 983] | 194% |  | 0.019 µM | 
28 | O=C(c1ccccc1)N1CCN(C2CN(C(=O)c3ccc(Sc4cccc(Cl)c4)cc3)C2)CC1 [Cpd 427, 4-(1-{[4-(3-Chloro-phenylsulfanyl)phenyl]carbonyl}azetidin-3-yl)-1-(phenylcarbonyl)-piperazine] | 163% | 0.0335 µM |  | 
29 | O=C(c1ccc2nc(-c3cccc(F)c3)sc2c1)N1CC(N2CCN(C(=O)c3nccs3)CC2)C1 [Cpd 1131] | 563% |  | 0.016 µM | 
30 | O=C(c1ccc(Sc2cccc(Cl)c2)cc1)N1CC(N2CCN(C(=O)c3nccs3)CC2)C1 [Cpd 428] | 734% | 0.0033 µM |  | 
31 | O=C(c1ccccc1)N1CCN(C2CN(C(=O)c3sc4cc(F)ccc4c3Cl)C2)CC1 [Cpd 543] | 158% |  | 0.038 µM | 
32 | Cc1nc(COc2ccc(Cl)cc2)sc1C(=O)N1CC(N2CCN(C(=O)c3nccs3)CC2)C1 [Cpd 965] | 591% | 0.035 µM |  | 
33 | O=C(c1ccc(C(F)(F)c2ccccc2)cc1)N1CC(N2CCN(C(=O)c3nccs3)CC2)C1 [Cpd 986, 1-[1-({4-[Difluoro(phenyl)methyl]phenyl}carbonyl)azetidin-3-yl]-4-(1,3-thiazol-2-ylcarbonyl)piperazine] | 626% | 0.005 µM |  | 
